In US20220031712A1, “PREPARATION OF A PHARMACEUTICAL COMPOSITION OF OLODATEROL AND BUDESONIDE” (priority 2020, published 2022):
Counter-ions that a name gives are not always drawn.

Experiment: Thermal stability of Samples 1-4 at 60° C. (HPLC content and impurity detection)
Format: physicochemical
Experimental: The thermal stability of samples 1˜4 of example 1 at 60° C. is provided below:
Impurity detection method: • Mobile phase A: accurately weigh 3.17 g of sodium dihydrogen phosphate, add 1 L of pure water to dissolve, adjust the pH of the solution to 3.20 with phosphoric acid. Mobile Phase B: Acetonitrile. • Instrument ID: HPLC. • Column ID: YMC-Triart C18 250*4.6 5 μm. • Detection wavelength: 230 nm. • Flow rate: 1.0 mL/min. • Running time: 35 min.

Row | stability of BD in the formulation (at pH 4.0 and 4.5, pH adjusted with citric acid) | stability of OH in the formulation (at pH 5.5 and pH 4.0, pH adjusted with citric acid) | Compound
1 | relatively stable |  | CCCC1O[C@@H]2C[C@H]3[C@@H]4CCC5=CC(=O)C=C[C@]5(C)[C@H]4[C@@H](O)C[C@]3(C)[C@]2(C(=O)CO)O1 (stereo partly drawn) [BD, 11β,21-dihydroxy-16α,17α-(butylidenebis(oxy))pregna-1,4-diene-3,20-dione]
2 |  | relatively stable | COc1ccc(CC(C)(C)NC[C@H](O)c2cc(O)cc3c2OCC(=O)N3)cc1 [OH, Olodaterol hydrochloride]
